Source: publication PMC6541511 (Organic & biomolecular chemistry, 2019)

What was measured:
SUM149 = test: CellTiterGlo; type: cell-based; conditions: SUM149, read-out: SUM149 EC50
HMEC = test: CellTiterGlo; type: cell-based; conditions: Homo sapiens, read-out: HMEC EC50
MDA-MB-231 = test: CellTiterGlo; type: cell-based; conditions: Homo sapiens, MDA-MB-231, read-out: MDA-MB-231 EC50
[1] = Solubility / precipitation; conditions: 5–10 mM concentrations in DMSO, RT
T-47D = test: CellTiterGlo; type: cell-based; conditions: Homo sapiens, T47D, read-out: T-47D EC50

Row | EC50 (MDA-MB-231) [µM] | Structure (SMILES) | EC50 (SUM149) [µM] | EC50 (HMEC) [µM] | time after which precipitation occurs [1] [h] | EC50 (T-47D) [µM] | solubility (physchem) [µM]
1 | 2 | CC(=O)O[C@H]1C(=O)[C@@]2(C)[C@H]([C@H](OC(=O)c3ccccc3)[C@]3(O)C[C@H](OC(=O)[C@H](O)[C@@H](NC(=O)c4ccccc4)c4ccccc4)C(C)=C1C3(C)C)[C@]1(OC(C)=O)CO[C@@H]1C[C@@H]2O [Taxol] | 0.01 | > 10 |  |  | 
2 | 1 | COc1cccc2c1C(=O)c1c(O)c3c(c(O)c1C2=O)C[C@@](O)(C(=O)CO)C[C@@H]3O[C@H]1C[C@H](N)[C@H](O)[C@H](C)O1 [Doxorubicin] | 1 | > 10 |  |  | 
3 | 5 | CCCCCOC(=O)Nc1nc(=O)n([C@@H]2O[C@H](C)[C@@H](O)[C@H]2O)cc1F [Capecitabine] | 5 | 10 |  |  | 

Row | Structure (SMILES) | EC50 (MDA-MB-231) [µM] | EC50 (SUM149) [µM] | EC50 (HMEC) [µM] | time after which precipitation occurs [1] [h] | EC50 (T-47D) [µM] | solubility (physchem) [µM]
4 | CC(C)[C@@H](C)/C=C/[C@@H](C)[C@H]1CC[C@@H]2[C@]1(C)CC[C@H]1[C@]23C=C[C@]2(C[C@@H](O)CC[C@]12C)OO3 [compound 3, ergosterol peroxide] | 18 | 9 | > 20 | 168 | 19 | < 50
